From patent US7265099B1, “Use of chemical chelators as reversal agents for drug-induced neuromuscular block” (Organon N.V., priority 1999, dated 2007)
Marks after values point to notes of the source that are not given here.

How the values were obtained:
[1] = test system: steady-state neuromuscular block induced by cis-atracurium (Cis-Atr); experiment: Reversal of neuromuscular blockade in vivo, anaesthetized guinea pig, cis-atracurium; details: Cis-Atr infusion, 85–90% block, anaesthetized guinea pigs, i.v. reversal agent; mean
Procedure: (§1) Male Dunkin-Hartley guinea pigs (bodyweight: 600–900 g) were anaesthetized by i.p. administration of 10 mg/kg pentobarbitone and 1000 mg/kg urethane. After tracheotomy, the animals were artificially ventilated using a Harvard small animal ventilator. A catheter was placed into the carotid artery for continuous monitoring of arterial blood pressure and the taking of blood samples for blood gas analysis. Heart rate was derived from the blood pressure signal. The sciatic nerve was stimulated (rectangular pulses of 0.5 ms duration at 10 s (0.1 Hz) intervals at a supramaximal voltage, using a Grass S88 Stimulator) and the force of M. gastrocnemius contractions was measured using a Grass FT03 force-displacement transducer. Contractions, blood pressure and heart rate were recorded on a multichannel Grass 7D recorder. Catheters were placed in both jugular veins. One catheter was used for the continuous infusion of a neuromuscular blocking agent. The infusion rate of the neuromuscular blocking agent was increased until a steady-state block of 85–90% was obtained. The other catheter was used for administration of increasing doses of the reversal agent. During continuous infusion of the neuromuscular blocking agent, single doses of increasing concentration of reversal agent were given. At the end of the experiment, the measured force of muscle contractions was plotted against the concentration of reversal agent, and using regression analysis techniques, the 50% reversal concentration was calculated.

[2] = test system: neuromuscular block induced by rocuronium in isolated mouse hemidiaphragm; experiment: Reversal of neuromuscular block in vitro: isolated mouse hemidiaphragm preparation; details: for Mouse hemidiaphragm: maximum reversal (%) / concentration of chemical chelator at maximum reversal: 3.1 μM rocuronium; for concentration of chemical chelator at maximum reversal: mouse hemidiaphragm; for Reversal of the neuromuscular blocking action of rocuronium (in words): rocuronium-induced block
Procedure: Hemidiaphragms, with phrenic nerves attached, were removed from euthanized male mice (Institute of Cancer Research; bodyweight: 20–60 g). The preparations were mounted on a tissue holder and placed in a tissue bath filled with a modified Krebs-Henseleit solution (composition: 118 mM NaCl, 30 mM NaHCO3, 5 mM KCl, 1 mM KH2PO4, 1 mM MgSO4, 30 mM glucose and 2.5 mM CaCl2) at 37° C. and bubbled with 95% oxygen and 5% carbondioxide. One end of the preparation was connected with a siliconized silk suture to a Grass FT03 force-displacement transducer. An initial force of 10 mN was applied. The phrenic nerve was placed on a bipolar platinum electrode and was stimulated with rectangular pulses of 0.2 ms duration at 20 s (0.05 Hz) intervals at a supramaximal voltage, using a Grass S88 Stimulator. Contractions were recorded on a four channel Grass 79D recorder.
Increasing amounts of reversal agent were then administered into the bath at intervals of 10 min. The % maximum reversal was established. At the end of the experiment, the measured muscle contractions force was plotted against the concentration of reversal agent, and using regression analysis techniques, the 50% reversal concentration was calculated.
After induction of neuromuscular block by rocuronium, the % maximum reversal produced by the addition of a number of γ-cyclodextrin derivatives (compounds 11–16), a cyclic octasaccharide comprising 4 rhamnosyl-mannopyranosyl units (compound 24), or a number of paracyclophane derivatives (compounds 17–21 and 23) are presented in Table II.
Reversal of neuromuscular block in vitro was carried out using the mouse hemidiaphragm preparation as described in Example 6.

[3] = test system: steady-state neuromuscular block induced by atracurium besilate (Atr); experiment: Reversal of neuromuscular blockade in vivo, anaesthetized guinea pig, atracurium; details: Atr infusion, 85–90% block, anaesthetized guinea pigs, i.v. reversal agent; mean
Procedure: as §1

[4] = test system: steady-state neuromuscular block induced by suxamethonium chloride (Sux; succinylcholine); experiment: Reversal of neuromuscular blockade in vivo, anaesthetized guinea pig, suxamethonium; details: Sux infusion, 85–90% block, anaesthetized guinea pigs, i.v. reversal agent; mean
Procedure: as §1

[5] = test system: steady-state neuromuscular block induced by tubocurarine chloride (T-C); experiment: Reversal of neuromuscular blockade in vivo, anaesthetized guinea pig, tubocurarine; details: T-C infusion, 85–90% block, anaesthetized guinea pigs, i.v. reversal agent; mean
Procedure: as §1

[6] = test system: steady-state neuromuscular block induced by mivacurium chloride (Miv); experiment: Reversal of neuromuscular blockade in vivo, anaesthetized guinea pig, mivacurium; details: Miv infusion, 85–90% block, anaesthetized guinea pigs, i.v. reversal agent; mean
Procedure: as §1

[7] = test system: steady-state neuromuscular block induced by vecuronium bromide (Vec); experiment: Reversal of neuromuscular blockade in vivo, anaesthetized guinea pig, vecuronium; details: Vec infusion, 85–90% block, anaesthetized guinea pigs, i.v. reversal agent; mean
Procedure: as §1

[8] = test system: steady-state neuromuscular block induced by rapacuronium bromide (Rap; Org 9487); experiment: Reversal of neuromuscular blockade in vivo, anaesthetized guinea pig, rapacuronium; details: Rap infusion, 85–90% block, anaesthetized guinea pigs, i.v. reversal agent; mean
Procedure: as §1

[9] = test system: steady-state neuromuscular block induced by pancuronium bromide (Pan); experiment: Reversal of neuromuscular blockade in vivo, anaesthetized guinea pig, pancuronium; details: Pan infusion, 85–90% block, anaesthetized guinea pigs, i.v. reversal agent; mean
Procedure: as §1

[10] = test system: steady-state neuromuscular block induced by rocuronium bromide (Roc); experiment: Reversal of neuromuscular blockade in vivo, anaesthetized guinea pig, rocuronium; details: Roc infusion, 85–90% block, anaesthetized guinea pigs, i.v. reversal agent; mean
Procedure: as §1
Reversal of neuromuscular block in vivo, induced by rocuronium bromide, was carried out as described in Example 5.

[11] = Complexation of rocuronium bromide by chemical chelators (1H NMR, 303 K); format: binding; details: NMR spectroscopy at 303 K, D2O, curve fitting of proton chemical shift changes
Procedure: All the ^1H spectra (303 K) were recorded at 400.13 MHz with 128 scans, sw=12 ppm, TD=32 k and zero filled to 64 k real points in processing. All experiments were measured at 303K.
Determination of Stoichiometry
Stock solutions of rocuronium bromide and γ-cyclodextrin (15) were prepared, both with a concentration of 6.02 mM. From these, sixteen solutions were prepared (with the mole % of rocuronium ranging from 0-100) by taking aliquots of 0–800 μl of the rocuronium bromide solution. Aliquots of the γ-cyclodextrin solution, 800–0 μl were added to make the solution a total volume of 800 μl and 100 mole % (i.e. 6.02 mM of [rocuronium bromide+γ-cyclodextrin]). ^1H-NMR spectra were recorded as described above.
If the chemical shift change of H9α in rocuronium bromide is defined as Δδ then a plot of [Δδ*(mole % rocuronium bromide)] vs. [mole % rocuronium bromide] gives a so called Job Plot by the method of continuous variation (Connors K. A.: Binding constants, The measurement of Molecular Complex Stability; Wiley-Interscience; New York, 1987, pp 24–28). The maximum in this plot is indicative for the stoichiometry of the complex.
Determination of the Association Constants
A stock solution of rocuronium bromide: 0.821 mM in D2O was prepared. […]
^1H NMR spectra were recorded as descibed above. […]

Molecule | Dose (ED50) producing 50% reversal of steady-state neuromuscular block [1] | Mouse hemidiaphragm: maximum reversal (%) [2] | concentration of chemical chelator at maximum reversal [2] | Reversal of the neuromuscular blocking action of rocuronium (in words) [2] | Dose (ED50) producing 50% reversal of steady-state neuromuscular block [3] | Dose (ED50) producing 50% reversal of steady-state neuromuscular block [4] | Dose (ED50) producing 50% reversal of steady-state neuromuscular block [5] | Dose (ED50) producing 50% reversal of steady-state neuromuscular block [6] | Dose (ED50) producing 50% reversal of steady-state neuromuscular block [7] | Dose (ED50) producing 50% reversal of steady-state neuromuscular block [8] | Dose (ED50) producing 50% reversal of steady-state neuromuscular block [9] | Dose (ED50) producing 50% reversal of steady-state neuromuscular block [10] | Association constant (Ka, M^−1) of 1:1 complex of rocuronium bromide and cyclic host compound [11]
carboxymethyl-γ-CD (DS = 3.2) [Compound 13] | 893 (2) μmol.kg^−1 | 88% | 180 µM | efficiently blocked | 990 (2) μmol.kg^−1 | 999 (2) μmol.kg^−1 | 431 (2) μmol.kg^−1 | 964 (3) μmol.kg^−1 | 30 (3) μmol.kg^−1 | 227 (2) μmol.kg^−1 | 641 (4) μmol.kg^−1 | 25 (4) μmol.kg^−1 | –
OC[C@H]1O[C@@H]2O[C@H]3[C@H](O)[C@@H](O)[C@@H](O[C@H]4[C@H](O)[C@@H](O)[C@@H](O[C@H]5[C@H](O)[C@@H](O)[C@@H](O[C@H]6[C@H](O)[C@@H](O)[C@@H](O[C@H]7[C@H](O)[C@@H](O)[C@@H](O[C@H]8[C@H](O)[C@@H](O)[C@@H](O[C@H]1[C@H](O)[C@H]2O)O[C@@H]8CO)O[C@@H]7CO)O[C@@H]6CO)O[C@@H]5CO)O[C@@H]4CO)O[C@@H]3CO [Compound 9, β-cyclodextrin] | – | – | – | – | – | – | – | – | 636 (1) μmol.kg^−1 | 358 (3) μmol.kg^−1 | 1050 (2) μmol.kg^−1 | 20 (3) μmol.kg^−1 | 3,100–3,900* M^−1
2-hydroxypropyl-γ-CD (DS = 4) [Compound 16] | 878 (2) μmol.kg^−1 | 71% | 360 µM | – | 828 (2) μmol.kg^−1 | 1340 (2) μmol.kg^−1 | 909 (2) μmol.kg^−1 | 1674 (2) μmol.kg^−1 | 123 (3) μmol.kg^−1 | 134 (3) μmol.kg^−1 | 440 (3) μmol.kg^−1 | 12 (3) μmol.kg^−1 | –
γ-cyclodextrin-phospate sodium salt (DS = 3) [Compound 11] | 204 (2) μmol.kg^−1 | 34% | 360 µM | – | 113 (2) μmol.kg^−1 | 160 (2) μmol.kg^−1 | 160 (2) μmol.kg^−1 | 292 (2) μmol.kg^−1 | 67 (3) μmol.kg^−1 | 80 (3) μmol.kg^−1 | 197 (2) μmol.kg^−1 | 64 (3) μmol.kg^−1 | –
OC[C@H]1O[C@@H]2O[C@H]3[C@H](O)[C@@H](O)[C@@H](O[C@H]4[C@H](O)[C@@H](O)[C@@H](O[C@H]5[C@H](O)[C@@H](O)[C@@H](O[C@H]6[C@H](O)[C@@H](O)[C@@H](O[C@H]7[C@H](O)[C@@H](O)[C@@H](O[C@H]8[C@H](O)[C@@H](O)[C@@H](O[C@H]9[C@H](O)[C@@H](O)[C@@H](O[C@H]1[C@H](O)[C@H]2O)O[C@@H]9CO)O[C@@H]8CO)O[C@@H]7CO)O[C@@H]6CO)O[C@@H]5CO)O[C@@H]4CO)O[C@@H]3CO [Compound 15, γ-cyclodextrin] | 1710 (2) μmol.kg^−1 | 94% | 144 µM | efficiently blocked | 2793 (4) μmol.kg^−1 | 1189 (2) μmol.kg^−1 | 630 (2) μmol.kg^−1 | 1690 (2) μmol.kg^−1 | 75 (4) μmol.kg^−1 | 57 (3) μmol.kg^−1 | 186 (4) μmol.kg^−1 | 4 (3) μmol.kg^−1 | 10,000–20,400# M^−1
carboxyethyl-γ-CD (DS = 3.8) [Compound 14] | 1558 (3) μmol.kg^−1 | 87% | 144 µM | efficiently blocked | 421 (2) μmol.kg^−1 | 1294 (2) μmol.kg^−1 | 294 (2) μmol.kg^−1 | 399 (2) μmol.kg^−1 | 25 (3) μmol.kg^−1 | 43 (3) μmol.kg^−1 | 141 (3) μmol.kg^−1 | 7 (3) μmol.kg^−1 | –
